Source: article PMC8492656, “Machine learning-guided acyl-ACP reductase engineering for improved in vivo fatty alcohol production” (Nature Communications, 2021)

Molecular target: T1, MA-ACR (parent A, A-AAAAAAAA) (Marinobacter nauticus, UniProt A1U3L3)
T1 construct: gene Maqu_2507; full-length two-domain enzyme (N-terminal AHR, C-terminal ATR), pET28, E. coli host, purified by the same method as His-tagged E. coli ACP; reported elsewhere as tetrameric
T1 sequence (A1U3L3 1-661): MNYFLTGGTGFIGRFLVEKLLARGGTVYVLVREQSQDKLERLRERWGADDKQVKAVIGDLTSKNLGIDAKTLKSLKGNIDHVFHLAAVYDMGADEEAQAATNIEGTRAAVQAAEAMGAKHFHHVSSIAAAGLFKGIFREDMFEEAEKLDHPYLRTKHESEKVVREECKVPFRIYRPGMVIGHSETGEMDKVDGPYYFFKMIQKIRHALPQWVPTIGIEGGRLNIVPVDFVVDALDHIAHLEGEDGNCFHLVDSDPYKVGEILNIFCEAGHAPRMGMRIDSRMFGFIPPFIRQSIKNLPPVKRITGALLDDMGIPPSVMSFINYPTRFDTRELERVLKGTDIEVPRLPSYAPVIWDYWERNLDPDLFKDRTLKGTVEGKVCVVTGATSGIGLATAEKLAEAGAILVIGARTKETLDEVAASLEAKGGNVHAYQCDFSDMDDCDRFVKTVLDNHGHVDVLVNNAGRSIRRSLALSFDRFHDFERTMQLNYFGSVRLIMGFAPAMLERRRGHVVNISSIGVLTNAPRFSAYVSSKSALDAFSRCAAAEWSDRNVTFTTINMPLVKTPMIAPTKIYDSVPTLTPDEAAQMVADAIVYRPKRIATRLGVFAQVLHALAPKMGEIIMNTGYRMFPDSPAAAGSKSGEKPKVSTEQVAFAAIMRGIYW
Assay: DTNB release assay, A412, 96-well plate
Type: biochemical
Settings: 200 µM NADPH, 1 µM enzyme, 250-252 µM DTNB, 20 mM Tris, 50 mM NaCl, pH 7

## CCCCCCCCCCCCCCCC(=O)SCCNC(=O)CCNC(=O)[C@H](O)C(C)(C)COP(=O)(O)OP(=O)(O)OC[C@H]1O[C@@H](n2cnc3c(N)ncnc32)[C@H](O)[C@@H]1OP(=O)(O)O [palmitoyl-CoA]
  DTNB release assay, A412, 96-well plate: ATR-83 has a lower activity than the parents on palmitoyl-CoA
